Measurements published in patent publication US20190106434A1, “N-[3-[2-AMINO-5-(1,1-DIFLUOROETHYL)-4,4A,5,7-TETRAHYDROFURO[3,4-D][1,3]OXAZIN-7A-YL]-4-FLUORO-PHENYL-5-(TRIFLUOROMETHYL)PYRIDINE-2-CARBOXAMIDE AND ITS (4AR,5S,7AS) ISOMER AS A SELECTIVE BACE1 INHIBITOR FOR TREATING E.G. ALZHEIMER'S DISEASE” (Eli Lilly and Company, priority 2016, published 2019).
Read-outs that look alike come from different tables or passages of the source.

Tests used:
beta-secretase = experiment: In vivo inhibition of beta-secretase, cannulated beagle dog model (Abeta 1-x ELISA); details: male beagle dogs, 1.0 mg/kg p.o.
Description: (§1) Several animal models, including mouse, guinea pig, dog, and monkey, may be used to screen for inhibition of beta-secretase activity in vivo following compound treatment. Herein, we conduct central pharmacology studies in a cannulated beagle dog model. In this model, a cohort of male beagle dogs are implanted with a cannula in the lumbar spine region and threaded up towards the cervical spine. This model allows multiple CSF collections throughout a single 48-72 hour study period through a subcutaneous lumbar port attached to the spinal catheter. As long as the cannula remains patent, additional CSF pharmacology studies can be conducted within the same cohort of dogs. Blood samples are processed to obtain plasma, and then plasma and CSF samples are aliquoted to allow determination of test compound and Abeta CSF concentrations.
In this study, six male beagle dogs are dosed p.o. with 1.0 mg/kg Example 1 in a 0.5 M, phosphate buffer (pH=2.0) formulation and blood (0.5, 1, 2, 3, 6, 9, 12, 24, and 48 hours) and CSF (3, 6, 9, 24, and 48 hours) are collected. Plasma and CSF compound concentrations are determined by LC/MS/MS methods. Plasma and CSF are also analyzed for Abeta 1-x. “Abeta 1-x” as used herein refers to the sum of Abeta species that begin with residue 1 and end with a C-terminus greater than residue 28. This detects the majority of Abeta species and is often called “total Abeta”. Total Abeta peptides (Abeta 1-x) levels are measured by a sandwich ELISA, using monoclonal 266 as a capture antibody and biotinylated 3D6 as reporting antibody. (See May, et al., Journal of Neuroscience, 31, 16507-16516 (2011)).

human BACE2 (1-460):Fc = biological target: T1, human BACE2 (1-460):Fc (Homo sapiens, UniProt Q9Y5Z0); experiment: BACE2 TMEM27 FRET Assay; format: biochemical
T1 construct: made in house; host or cells: HEK293 cells, transient transfection; purified from conditioned media by Protein A
T1 sequence (Q9Y5Z0 21-460): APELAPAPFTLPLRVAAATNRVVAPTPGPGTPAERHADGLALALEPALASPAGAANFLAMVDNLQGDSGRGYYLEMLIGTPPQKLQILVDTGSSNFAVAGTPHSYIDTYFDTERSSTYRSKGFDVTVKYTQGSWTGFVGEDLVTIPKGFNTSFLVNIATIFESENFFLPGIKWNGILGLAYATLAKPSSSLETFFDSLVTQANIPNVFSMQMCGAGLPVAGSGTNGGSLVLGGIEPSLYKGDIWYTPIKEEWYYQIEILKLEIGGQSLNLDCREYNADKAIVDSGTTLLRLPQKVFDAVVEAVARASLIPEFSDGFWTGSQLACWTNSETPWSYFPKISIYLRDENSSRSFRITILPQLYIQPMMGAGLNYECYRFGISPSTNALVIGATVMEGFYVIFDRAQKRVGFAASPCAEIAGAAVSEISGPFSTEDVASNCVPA
Description: (§2) To assess selectivity of BACE1 over BACE2, the test compound is evaluated in FRET assays using specific substrates for BACE1 and BACE2 as described below. For in vitro enzymatic and cellular assays, the test compound is prepared in DMSO to make up a 10 mM stock solution. The stock solution is serially diluted in DMSO to obtain a ten-point dilution curve with final compound concentrations ranging from 10 μM to 0.05 nM in a 96-well round-bottom plate before conducting the in vitro enzymatic and whole cell assays.
(§3) Human BACE1 (accession number: AF190725) and human BACE2 (accession number: AF 204944) are cloned from total brain cDNA by RT-PCR. The nucleotide sequences corresponding to amino acid sequences #1 to 460 are inserted into the cDNA encoding human IgG1 (Fc) polypeptide (Vassar et al., Science, 286, 735-742 (1999)). […]
(§4) Conditioned media of HEK293 cells transiently transfected with huBACE1:Fc or huBACE2:Fc cDNA are collected. […] The purity of the final product is assessed by electrophoresis in 4-20% Tris-Glycine SDS-PAGE. […]
Serial dilutions of test compound are prepared as described above. […] The RFU of the mixture at time 0 is recorded at excitation wavelength 430 nm and emission wavelength 535 nm. […] The RFU at the end of incubation is recorded with the same excitation and emission settings used at time 0. […]

[1] = Plasma and CSF compound exposure in cannulated beagle dogs (LC/MS/MS); format: in vivo; details: dog, po, male beagle dogs, 1.0 mg/kg p.o.
Description: as §1
In this study, six male beagle dogs are dosed p.o. with 1.0 mg/kg Example 1 in a 0.5 M, phosphate buffer (pH=2.0) formulation and blood (0.5, 1, 2, 3, 6, 9, 12, 24, and 48 hours) and CSF (3, 6, 9, 24, and 48 hours) are collected. Plasma and CSF compound concentrations are determined by LC/MS/MS methods. Plasma and CSF are also analyzed for Abeta 1-x. […] Total Abeta peptides (Abeta 1-x) levels are measured by a sandwich ELISA, using monoclonal 266 as a capture antibody and biotinylated 3D6 as reporting antibody. […]

Human BACE1(1-460):Fc = biological target: T2, Human BACE1(1-460):Fc (Homo sapiens, UniProt P56817); experiment: BACE1 FRET Assay; format: biochemical; details: purified recombinant huBACE1:Fc, FRET substrate based on APP; mean ± standard deviation of the mean, n=12
T2 construct: made in house; host or cells: HEK293 cells, transient transfection; purified from conditioned media by Protein A
T2 sequence (P56817 22-460): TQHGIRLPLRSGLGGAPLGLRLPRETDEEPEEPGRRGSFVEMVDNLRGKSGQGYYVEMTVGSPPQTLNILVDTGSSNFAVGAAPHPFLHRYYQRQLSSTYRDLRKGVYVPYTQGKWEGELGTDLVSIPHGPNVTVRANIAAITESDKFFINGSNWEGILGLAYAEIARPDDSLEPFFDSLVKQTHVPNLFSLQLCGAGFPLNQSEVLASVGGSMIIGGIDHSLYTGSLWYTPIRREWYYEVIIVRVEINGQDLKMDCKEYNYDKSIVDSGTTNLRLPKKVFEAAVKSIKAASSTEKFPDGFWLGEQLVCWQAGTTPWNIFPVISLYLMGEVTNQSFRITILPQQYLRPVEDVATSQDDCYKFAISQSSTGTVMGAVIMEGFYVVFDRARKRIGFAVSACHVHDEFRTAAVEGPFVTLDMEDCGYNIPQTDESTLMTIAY
Description: as §2, §3, §4
Serial dilutions of the test compound are prepared as described above. […] The RFU of the mixture at time 0 is recorded at excitation wavelength 355 nm and emission wavelength 460 nm, after brief mixing on a plate shaker. […] The RFU at the end of incubation is recorded with the same excitation and emission settings used at time 0. […]

[2] = biological target: T3, BACE1 activity in SH-SY5YAPP695Wt cells (Homo sapiens, UniProt P56817); experiment: SH-SY5YAPP695Wt Whole Cell Assay (Abeta ELISA); format: cell-based; details: 24 hours incubation, conditioned media, n=4
T3 construct: endogenous in cells; host or cells: SH-SY5Y (ATCC CRL2266) stably expressing human APP695Wt
T3 sequence (P56817 46-501): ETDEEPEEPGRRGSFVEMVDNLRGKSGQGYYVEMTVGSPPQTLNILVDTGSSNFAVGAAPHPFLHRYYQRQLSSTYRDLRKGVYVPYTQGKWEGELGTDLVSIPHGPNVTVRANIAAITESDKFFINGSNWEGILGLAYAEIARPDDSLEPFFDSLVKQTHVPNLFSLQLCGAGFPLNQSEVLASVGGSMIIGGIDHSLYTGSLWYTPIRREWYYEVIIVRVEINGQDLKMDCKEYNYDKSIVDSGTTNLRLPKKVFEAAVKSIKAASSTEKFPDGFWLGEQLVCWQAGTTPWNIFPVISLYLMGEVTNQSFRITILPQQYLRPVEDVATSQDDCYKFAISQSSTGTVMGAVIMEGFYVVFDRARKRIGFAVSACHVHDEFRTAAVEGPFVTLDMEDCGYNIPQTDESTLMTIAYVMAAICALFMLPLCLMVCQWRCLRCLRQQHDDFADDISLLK
Description: as §2
The routine whole cell assay for the measurement of inhibition of BACE1 activity utilizes the human neuroblastoma cell line SH-SY5Y (ATCC Accession No. CRL2266) stably expressing a human APP695Wt cDNA. Cells are routinely used up to passage number 6 and then discarded.
SH-SY5YAPP695Wt cells are plated in 96 well tissue culture plates at 5.0×10^4 cells/well in 200 μL culture media (50% MEM/EBSS and Ham's F12, 1× each sodium pyruvate, non-essential amino acids and NaHCO3 containing 10% FBS). The following day, media is removed from the cells, fresh media added then incubated at 37° C. for 24 hours in the presence/absence of test compound at the desired concentration range.
At the end of the incubation, conditioned media are analyzed for evidence of beta-secretase activity by analysis of Abeta peptides 1-40 and 1-42 by specific sandwich ELISAs. […]

IC50 (human BACE2 (1-460):Fc; huBACE2:Fc, TMEM27 LucY FRET substrate, mean ± standard deviation of the mean, n=6): 602 nM | BACE1 selectivity over BACE2 (BACE2 IC50 / BACE1 IC50) (human BACE2 (1-460):Fc; selectivity for BACE1 over BACE2): approximately 50 fold | Kp ([1]; CSF / free plasma, free fraction by equilibrium dialysis, read-out: ratio of CSF AUC to free plasma AUC): 0.17 | AUC ([1]; plasma, read-out: total plasma AUC exposure): 7.96 µM·h | IC50 (Human BACE1(1-460):Fc): 11.9 nM | IC50 ([2]; read-out: IC50 for SH-SY5YAPP695Wt A-beta (1-40) ELISA): 1.03 nM | IC50 ([2]; read-out: IC50 for SH-SY5YAPP695Wt A-beta (1-42) ELISA): 1.28 nM
Compound: CC(F)(F)[C@H]1OC[C@]2(c3cc(NC(=O)c4ccc(C(F)(F)F)cn4)ccc3F)N=C(N)OC[C@H]12 [Example 1, N-[3-[(4aR,5S,7aS)-2-Amino-5-(1,1-difluoroethyl)-4,4a,5,7-tetrahydrofuro[3,4-d][1,3]oxazin-7a-yl]-4-fluoro-phenyl]-5-(trifluoromethyl)pyridine-2-carboxamide]
reduction of CSF Abeta 1-x levels relative to baseline (beta-secretase; 24 hours): approximately 65% | reduction in plasma levels of Abeta 1-x at nadir (beta-secretase; 48 hour post-dosing period): up to 80% | reduction of CSF Abeta 1-x levels relative to baseline (beta-secretase; 48 hours): ~55%
